For the assay, the system named is MDA-MB-231. Put plainly: Cell cycle arrest in human MDA-MB-231 cells assessed as accumulation at G1 phase incubated for 48 hrs by propidium iodide staining based flow cytometric analysis (reference value: 55.63 %). It counts as functional.

The structures appear in SMILES notation.

For the compound `COc1ccc(OC)c(-c2nc(SCC(=O)c3ccc(Br)cc3)nc(Nc3ccc(S(N)(=O)=O)cc3)c2C#N)c1`, the Activity was 39.7%.

These data come from ChEMBL document CHEMBL5038625, “Application of the dual-tail approach for the design and synthesis of novel Thiopyrimidine-Benzenesulfonamide hybrids as selective carbonic anhydrase inhibitors” (Eur J Med Chem, 2022).
